Earlier results on four compounds are cited in patent US10751328B2, “Therapy for chronic idiopathic urticaria, anaphylaxis and angioedema” (priority 2013, dated 2020).

Data set [1] has as its system white blood cell counts (eosinophil, basophils). As to conditions: ALS subjects, 150 mg twice daily up to 18 months, monthly CBCs; FIGS. 1 to 4 (prior art poster).
Data set [2] deals with wheal and flare reaction. As to conditions: versus histamine.
The conditions of data set [3]: dihydrochloride monohydrate salt, crystalline.
The test system of data set [4] is chronic idiopathic urticaria symptoms. As to conditions: patients with chronic idiopathic urticaria symptomatic despite approved doses of H1-antihistamines; 139 patients.

Regarding `CCCN[C@@H]1CCc2nc(N)sc2C1` [Dexpramipexole, (6R)-4,5,6,7-tetrahydro-N6-propyl-2,6 benzothiazole diamine], the “effect on white blood cell counts” value in data set [1] is “reduce white blood cell counts, especially eosinophil and basophils”. On to `CCCCC/C=C\C\C=C/C=C/C=C/[C@@H](SC[C@H](NC(=O)CC[C@H](N)C(=O)O)C(=O)NCC(=O)O)[C@@H](O)CCCC(=O)O` [LTC4, leukotriene C4], for which the “potency relative to histamine in causing wheal and flare reaction” value in data set [2] is on record as “about 1,000 times”. For `CCCN[C@H]1CCc2nc(N)sc2C1` [pramipexole, (6S)-2-amino-4,5,6,7-tetrahydro-6-(propylamino)benzothiazole], the solubility in water result in data set [3] is given as “extremely well soluble in water”. “omalizumab: agent effective in chronic idiopathic urticaria through its reduction of FcεRI function in basophils and mast cells”: the effect on symptoms entry in data set [4] is recorded as “beneficial effects on symptoms”.
